US20260373497A1, “MOLECULAR MACHINES STIMULATE INTERCELLULAR CALCIUM WAVES AND CAUSE MUSCLE CONTRACTION” (William Marsh Rice University, priority 2022, published 2026)
“And” between values parts separate entries of the source, which are not always exact repeats. Equal values may be shown once. “Also recorded” adds a separate entry of the source.

Tests used:
[1] = UV-Vis absorbance of motors in DMSO; type: physicochemical
From the text: The UV-Vis spectrum of each motor was also acquired in DMSO (FIG. 37D) to ensure that the difference in absorbance at 400 nm was not the cause of larger or smaller responses.

C2C12 myoblasts = assay: MM-induced calcium release in C2C12 cells (Fluo-4); type: cell-based, mouse; settings: for Calcium release in C2C12 myoblasts: light for 500 ms, MM 1 8 μM
From the text: FIGS. 36A-36D—MMs cause intracellular calcium waves in C2C12 myoblasts, a) MM 1 (unidirectional, ~3 MHz) structure showing rotor and stator. b) Rotation cycle of a MM. c) Confocal microscope images of C2C12 myoblasts with MM and labeled with Fluo-4. Stimulated areas are indicated by the red arrows immediately before stimulation and 10 s after stimulation. Scale bar=30 μm. d) Average normalized fluorescence intensity trace of stimulated C2C12 cells myoblasts treated with either DMSO (n=6) or MM 1 (n=7) and stimulated with 400-nm laser light for 500 ms. Laser stimulation is shown by the cyan line.
Fluo-4 is an intracellular calcium dye that fluoresces green when binding to calcium and is commonly used to observe intracellular calcium spikes in many cell types.
C2C12 cells will undergo differentiation from myoblasts to multinucleated myotubes when allowed to grow to confluence. This process occurs over the course of several days and can be sped up by replacing normal growth media with low serum differentiation media (Jang et al., 2022). The responsiveness of C2C12 cells to MM stimulation changes was tracked as they went through the process of growth and differentiation (FIG. 39). When plated on the first day, the cells are in low confluency, and show clear morphology of myoblasts. The cells reach around 100% confluency on day 4 (FIG. 39A), at which point they begin to differentiate to form the myotubes. They show lowest uptake of Fluo-4 and nearly no responses. After about 9 days of growth in regular growth media, myotubes begin to form, which have a fibrous, striated and multinucleated appearance, and the uptake of Fluo-4 could be observed again.

[2] = cited from earlier work
Hydra vulgaris = assay: Whole-body contraction of Hydra (Protocol II); type: in vivo; settings: for Contraction rate compared with light alone: Fisher's Exact Test, MM 2 P<0.00001, MM 1 P=0.0199, MM 3 P=0.5325, MM 4 P=0.0439; for Contraction peaks relative to sham stimulus: sham light, 0% laser duty cycle; for Signaling / contraction in Hydra (summary): in vivo, MM + light
Description: FIGS. 20A-20N—MM induce ICW and muscle contraction in vivo. (a) Image of a Hydra loaded into a microfluidic chamber with anatomical regions marked. Scale bar is 100 μm and applies to (a-c). (b) MM 1 (24 μM) loaded into Hydra for 24 h. (c) A Hydra expressing GCaMP7b in endodermal epitheliomuscular cells. The stimulation regions used for Protocols I and II are marked. Protocol 1 was used for body column stimulation (1 s pulse to a 10 μm diameter circular area) to trigger regional ICW. Protocol II was used for oral region stimulation (2 s pulse to the oral region, ~1000-2000 μm^2) to trigger whole-body contraction. (d) A regional ICW in a Hydra treated with MM 1 and stimulated with 405-nm light via Protocol I. The indicated times represent the time after stimulation at which the image was taken. Scale bar applies to both images and is 100 μm. (e-i) Responses observed from Hydra treated with (e) MM 1, (f) MM 2, (g) MM 3, (h) MM 4, or (i) DMSO control (“C”) and stimulated for 1 s using Protocol I. Bold, colored traces represent the average trace (n=25 across 5 Hydra). Gray traces represent individual experiments. (j) Bar graph showing ICW response rate and (k) box-and-whisker plot showing ICW delay time of Hydra stimulated using Protocol I across MM treatment conditions (n=25 experiments across at least 5 Hydra per condition). ICW responses were defined as ΔF/F0>1. (1) Representative contraction in a Hydra treated with MM 2 and stimulated via Protocol II. Scale bar applies to both images and is 100 μm. (m) Representative GCaMP7b fluorescence trace in a Hydra treated with MM 2 and stimulated using Protocol II. (n) Bar graph showing contractile response rates across treatment conditions for Hydra stimulated for 2 s using Protocol II (at least 50 experiments across ≥5 Hydra per condition). Error bars in bar graphs represent the standard error of the mean. See Example 6 for more info on the calculation of ICW and contractile response rates. For all plots, cyan lines indicate the time of stimulus with 405-nm light (9.0×10^2 W cm^−2), during which no data was collected. * P-value<0.05, ** P-value<0.01, *** P-value<0.001, **** P-value<0.0001.
Prior to stimulation experiments, Hydra were loaded with MM by incubating with solutions containing 24 μM of MM for 24 h (FIG. 20B). Distinct stimulation protocols were employed to cause either local ICW or whole-body contraction (FIG. 20C). First, treatment of MM-loaded Hydra with pulses of laser light administered to a small region of the body column (Protocol I) caused ICW emanating from the site of stimulation (FIGS. 20D and 21). Similar to ICW evoked in vitro, these ICW propagated throughout the Hydra body column according to the degree of electrical connectivity of the stimulated cells. Distinct propagation kinetics were observed when stimulating different regions of Hydra simultaneously. Second, MM activation was used to attempt to drive whole-body Hydra contractions by administering laser stimuli to the oral region (Protocol II).
Hydra Preparation, Stimulation, and Imaging: Hydra were raised in Hydra medium containing CaCl2·2H2O, MgCl2·6H2O, KNO3, NaHCO3, and MgSO4 in deionized water at 18 °C in a light-cycled (12 h light, 12 h dark) incubator. Hydra were fed with an excess of freshly brined Artemia Nauplii (Brine Shrimp Direct, Ogden, UT, #BSEP8Z) three times a week. All experiments were performed at room temperature after starving the animals for 2 days. The transgenic line expressing GCaMP6s under the Actin promoter in neurons was generated by embryonic microinjection by the Yuste lab at Columbia University (Addgene: plasmid #102558). The transgenic line expressing GCaMP7b under the Ef1α promoter in endodermal epitheliomuscular tissue was generated by embryonic microinjection in a collaboration by the Robinson lab (Rice University) and the Juliano Lab (University of California, Davis).
Hydra were incubated with chosen MM 24 h before imaging. […]

Structure (SMILES)	Absorbance at 400 nm [1]	Calcium release with scavenger combination (C2C12 myoblasts; MM 1 + light, with thiourea-containing scavenger combination (1× and 0.2×))	Responsiveness to MM stimulation during differentiation (C2C12 myoblasts; MM 1, day 1 to day 3)	Responsiveness to MM stimulation during differentiation (C2C12 myoblasts; MM 1, day 4 to day 8)	Responsiveness to MM stimulation during differentiation (C2C12 myoblasts; MM 1, day 9)	Calcium release at lower laser power (C2C12 myoblasts; MM 1, lower laser powers)	Calcium release in C2C12 myoblasts (C2C12 myoblasts)	Rotation rate [2]	Contraction rate compared with light alone (Hydra vulgaris)	Contraction peaks relative to light stimulus (Hydra vulgaris; Protocol II, with light)	Contraction peaks relative to sham stimulus (Hydra vulgaris)	Success Rate (contractile response rate) (Hydra vulgaris; with light, Protocol II) [%]	Total Null (Hydra vulgaris; with light, Protocol II)	Total Successes (contractile responses) (Hydra vulgaris; with light, Protocol II)	Success Rate (contractile response rate) (Hydra vulgaris; without light (sham)) [%]	Total Null (Hydra vulgaris; without light (sham))	Total Successes (contractile responses) (Hydra vulgaris; without light (sham))	Calcium release at 3 times higher concentration (C2C12 myoblasts; MM 3, 3×)	Signaling / contraction in Hydra (summary) (Hydra vulgaris)
CC1Cc2ccc3ccccc3c2C1=C1c2ccccc2Sc2cc(NCCN(C)C)ccc21 (centres unmarked) [MM 1]	nearly identical absorbances at 400 nm	without changing the magnitude of calcium release	slight decrease of the responsivity from day 1 to day 3	lose their responsiveness to MM stimulation	increase in responsiveness to MM stimulation	lower calcium release	robust intracellular calcium release; also recorded: calcium transients several times larger in magnitude than MM 2	~ 3 MHz and 3 MHz	at a significantly higher rate than light alone	most often occur in concert with stimuli	do not occur in concert with sham stimulus	68	14	48	29	28	13		
CC1Cc2cc(NCCN(C)C)c3ccccc3c2C1=C1c2ccccc2-c2ccccc21 (centres unmarked) [MM 3]	much smaller absorbance						did not induce any calcium release		did not elicit contraction at a significantly higher rate than light alone	occasionally follow stimuli	do not occur in concert with sham stimulus	38	2	18	12	17	12	no measurable increase in calcium release	Small responses were observed
CN(C)CCNc1ccc2c(c1)Sc1ccccc1C2=C1CCc2ccc3ccccc3c21 [MM 4]								3 MHz	more effective than light alone	most often occur in concert with stimuli	do not occur in concert with sham stimulus	65	5	36	20	15	6		able to drive non-trivial signaling behavior in vivo
